Data as given in US20210015881A1 (priority 2016, published 2021).

Key:
aconitic arrhythmia = conditions: for effect on baseline heart rate and contraction (intervals R-R, PQ, QT): i.v. at doses that provide antiarrhythmic effect in 50% of rats; for antiarrhythmic activity and range of antiarrhythmic action, comparison: active doses 5-10 minutes prior to i.v. aconitine
Experimental: The study was conducted in anesthetized white outbred rats. The objective of the experiment was to study the efficiency of intravenous administration of the studied substances and known antiarrhythmic agents in the model of aconitic arrhythmia in anesthetized rats.
The studied substances and medicinal products for comparison were administered in active doses 5-10 minutes prior to intravenous administration of aconitine.

[1] = tested on: cardiac arrhythmia caused by barium chloride; experiment: Cardiac arrhythmia caused by barium chloride; type: in vivo, rats
Experimental: The study was conducted in 60 white outbred rats. […] Out of 15 control animals, which received barium chloride at a dose of 20 mg/kg, […] of the rats died.
Rhythm disturbances were mostly of a ventricular type, in the form of ventricular bigeminy, trigeminy, group extrasystoles, transient ventricular standstill, flutter and ventricular fibrillation. In addition, various types of conduction disorders and increased ST segment above contours were observed.
Intravenous administration of the studied substances at doses of 0.05-0.1 mg/kg 10 min prior to the injection of barium chloride prevented the development of arrhythmias in 60-90% of rats. Antiarrhythmic effect of the studied substances combines with antitoxic effect against lethality from barium chloride.

corneal reflex = experiment: Terminal (topical) anesthesia of the rabbit eye, method of Rainier-Valet; type: in vivo, rabbits
Experimental: The local anesthetic effect of the studied substances was investigated in 10 rabbits. The effect on terminal anesthesia was investigated by the method of Rainier-Valet, by identifying the corneal reflex to mechanical irritation every 5-10 min after instillation of 2 drops of 0.1%-0.25%-0.5% solutions of the studied substances.
(§1) The time of anesthesia onset, its depth and duration were determined. Activity of the studied substances at topical anesthesia was compared to dicaine; at infiltration anesthesia-to novocaine.

[2] = tested on: threshold of pain irritation; experiment: Infiltration anesthesia in rabbits, method of Bullbring-Vida; type: in vivo; conditions: 0.5% solution
Experimental: The ability of the medicinal product to cause infiltration anesthesia was studied in rabbits by the method of Bullbring-Vida (pain method).
as §1

Compound: CCOC(=O)Nc1ccc2c(c1)N(C(=O)CCN1CCOCC1)c1ccccc1S2 [Etmozin]
- effect on baseline heart rate and contraction (intervals R-R, PQ, QT) (aconitic arrhythmia): inhibition of the baseline heart rate and contraction
- antiarrhythmic activity and range of antiarrhythmic action, comparison (aconitic arrhythmia; i.v.): most efficient among the reference antiarrhythmic agents

Compound: CCN(CC)CC(=O)Nc1c(C)cccc1C [Lidocaine]
- duration of effect, comparison (aconitic arrhythmia; i.v., active doses prior to aconitine): shortest effect

Compound: CCN(CC)CCNC(=O)c1ccc(N)cc1 [Procainamide]
- antiarrhythmic and antitoxic activity, comparison ([1]; barium chloride model of ventricular type arrhythmia): weakest antiarrhythmic and antitoxic activity

Compound: C=C[C@H]1C[N@@]2CC[C@H]1C[C@@H]2[C@@H](O)c1ccnc2ccc(OC)cc12 [Quinidine]
- antiarrhythmic and antitoxic effect compared with substances 1-9 at 0.05 mg/kg and 0.1 mg/kg ([1]; 5 mg/kg and 10 mg/kg): approximately similar
- effect on baseline heart rate and contraction (intervals R-R, PQ, QT) (aconitic arrhythmia): inhibition of the baseline heart rate and contraction

Compound: COc1ccc(CCN(C)CCCC(C#N)(c2ccc(OC)c(OC)c2)C(C)C)cc1OC (centres unmarked) [Verapamil]
- antiarrhythmic activity and range of antiarrhythmic action, comparison (aconitic arrhythmia; i.v.): least effective

Compound: CCCCNc1ccc(C(=O)OCCN(C)C)cc1 [dicaine]
- average duration of terminal anesthesia of the rabbit eye (corneal reflex; 0.1%): 37 min
- average duration of terminal anesthesia of the rabbit eye (corneal reflex; 0.5%): 52 min
- onset of terminal anesthesia of the rabbit eye (corneal reflex; concentrations of 0.1% and 0.5%): 1 to 2 min

Compound: CCN(CC)CCOC(=O)c1ccc(N)cc1 [novocaine]
- duration of local anesthetic effect [2]: about 90 min
